Test results reported in patent US5428031A, “Methods of treating cardiac arrhythmia” (priority 1993, dated 1995).
Read-outs that look alike come from different tables or passages of the source.

How the values were obtained:
[1] = target: T1, IKs (slowly activating delayed rectifier K+ current) (Cavia porcellus, UniProt O70344); experiment: cell-based; format: cell-based, guinea pig
T1 construct: Guinea pig ventricular myocytes were isolated; endogenous in cells; host or cells: isolated guinea pig ventricular myocytes
Experimental: Current amplitude is measured as the difference from the initial instantaneous current level following the capacitance discharge after changing the transmembrane voltage from -50 mV to +50 mV, to the current level at the end of the 1 second voltage step. Normally, an increase in the current amplitude occurs as a function of time and voltage during depolarization of the cardiac cell membrane and this increasing current has been defined as the delayed rectifier K^+ current (IK). […] IKs current occurs as a consequence of time- and voltage-dependent opening of ionic channels or pores in the cardiac cell membrane that allow the relatively selective flow of potassium ions (K^+) from the inside to the outside of the cell, that is, down the voltage and concentration gradient for K^+ ions that is inherent in cardiac cells. Thus, block of the IKs current ultimately reflects block of certain ion channels or pores in the cardiac cell membrane. However, the single pores or channels thought to underlie the IKs current have yet to be measured or identified at the single channel level.
(§1) Guinea pig ventricular myocytes were isolated using a modification of the procedure described by Mitra R and Morad M., "A Uniform Enzymatic Method for Dissociation of Myocytes from Hearts and Stomachs of Nertilorates", Am. J. Physiol. […] Excised hearts were perfused through the aorta (retrograde fashion) at a rate of 10 ml/min with oxygenated, warmed (37° C.) solutions described below. […] The head was then perfused with the same nominally Ca^2+ -free solution containing 150 units/ml Type II collagenase (Worthington) and 0.5 units/ml Type XIV protease (Sigma) for 8 minutes. This perfusate was followed by a Tyrode's solution containing 0.2 mM CaCl2 (without enzymes) for 5 minutes. The digested ventricles were cut into small pieces and gently shaken until cells were visibly dispersed. The cells were stored at room temperature until use, within 8 hours after isolation.
(§2) The suction microelectrode technique described by Giles, W. R. and Shibata, E. F., "Voltage clamp of bull-frog cardiac pacemaker cells: a quantitative, analysis of potassium currents". J. Physiol. […] Microelectrodes were made by using a two stage puller from square bore (1.0 mm o.d.) borosilicate capillary tubing. […] After establishing whole-cell recording mode, negative pressure was maintained on the pipette using a 1 ml gas-tight syringe attached via air tight tubing to the suction port of the microelectrode holder. This minimized dialysis of the cell with the pipette solution.
(§3) To record K^+ currents, the cells were bathed in a Ca^2+ -free Tyrode's :solution containing […] nisoldipine. […] A List EPC-7 clamp amplifier was used to voltage clamp the isolated cells. […] A variety of voltage pulse protocols were used to measure Ca^2+ current and three types of K^+ currents: inward rectifier (IK1), rapidly activating delayed rectifier (IKr) and the slowly activating delayed rectifier (IKs). Sanguinetti M. C. and Jurkiewicz, N. K., "Two components of cardiac delayed rectifier K^+ current: Differential sensitivity to block by Class III antiarrhythmic agents". […] Data was analyzed as % block from control membrane currents.
(§4) Nisoldipins was prepared as a 4 mM stock solution in polyethylne glycol 200. Compounds tested in this series were prepared as 10 mM stock solutions in polyethylene glycol 400 or dimethyl sulfoxide.

[2] = target: T2, IKr (rapidly activating delayed rectifier K+ current) (Cavia porcellus, UniProt O08703); experiment: voltage clamp measurement of IKr block in isolated guinea pig ventricular myocytes; format: cell-based
T2 construct: Guinea pig ventricular myocytes were isolated; endogenous in cells; host or cells: isolated guinea pig ventricular myocytes
T2 sequence (O08703 1-1294): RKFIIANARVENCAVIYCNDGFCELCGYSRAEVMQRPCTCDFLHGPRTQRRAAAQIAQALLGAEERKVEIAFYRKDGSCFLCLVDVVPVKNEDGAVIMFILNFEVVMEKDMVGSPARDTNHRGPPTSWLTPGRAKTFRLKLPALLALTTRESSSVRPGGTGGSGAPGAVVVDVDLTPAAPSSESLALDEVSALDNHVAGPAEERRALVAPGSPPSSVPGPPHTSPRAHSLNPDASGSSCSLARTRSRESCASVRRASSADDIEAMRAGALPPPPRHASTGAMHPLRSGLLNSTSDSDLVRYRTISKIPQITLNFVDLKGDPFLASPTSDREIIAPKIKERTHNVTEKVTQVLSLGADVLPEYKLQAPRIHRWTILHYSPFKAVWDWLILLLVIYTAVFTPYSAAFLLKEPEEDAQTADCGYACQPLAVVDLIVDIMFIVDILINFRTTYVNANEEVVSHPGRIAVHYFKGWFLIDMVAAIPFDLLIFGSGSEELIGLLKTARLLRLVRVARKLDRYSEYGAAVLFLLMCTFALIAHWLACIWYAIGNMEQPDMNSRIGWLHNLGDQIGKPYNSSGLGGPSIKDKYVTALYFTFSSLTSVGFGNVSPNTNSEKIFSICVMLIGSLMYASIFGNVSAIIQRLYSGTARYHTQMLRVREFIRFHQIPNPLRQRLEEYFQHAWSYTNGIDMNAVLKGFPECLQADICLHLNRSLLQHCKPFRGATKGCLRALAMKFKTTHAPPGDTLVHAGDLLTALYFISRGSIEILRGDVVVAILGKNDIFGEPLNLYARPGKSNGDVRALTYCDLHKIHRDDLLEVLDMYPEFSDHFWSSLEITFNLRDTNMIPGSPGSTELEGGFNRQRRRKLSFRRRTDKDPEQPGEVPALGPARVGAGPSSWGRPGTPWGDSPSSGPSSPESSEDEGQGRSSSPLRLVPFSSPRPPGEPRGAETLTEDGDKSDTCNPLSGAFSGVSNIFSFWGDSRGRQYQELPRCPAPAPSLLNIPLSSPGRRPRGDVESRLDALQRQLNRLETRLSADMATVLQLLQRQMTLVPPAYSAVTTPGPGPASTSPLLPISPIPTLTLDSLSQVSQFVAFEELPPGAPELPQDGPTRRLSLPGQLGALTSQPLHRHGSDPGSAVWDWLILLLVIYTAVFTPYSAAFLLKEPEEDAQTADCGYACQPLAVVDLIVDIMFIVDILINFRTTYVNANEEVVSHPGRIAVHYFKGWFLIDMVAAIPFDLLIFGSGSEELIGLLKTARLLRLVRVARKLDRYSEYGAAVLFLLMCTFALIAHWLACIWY
Experimental: as §1, §2, §3, §4

IKr = settings: cited from earlier work
IKs = settings: cited from earlier work
Na+ currents = settings: cited from earlier work
Ca2+ currents = settings: cited from earlier work
thyroid function = settings: cited from earlier work
adrenergic = settings: cited from earlier work
phospholipase = settings: cited from earlier work
[3] = cited from earlier work
L-type Ca2+ channels = settings: 0.4 mM nisoldipine; cited from earlier work
K+ currents = settings: 0.4 mM nisoldipine; cited from earlier work
[4] = 10 μM, read-out: Cellular Electrophysiology (% Block), IKs
[5] = 1 μM, read-out: Cellular Electrophysiology (% Block), IKr
[6] = 10 μM, read-out: Cellular Electrophysiology (% Block), IKr
[7] = read-out: IC50 or % Block (μM), IKr (% block)
[8] = read-out: Cellular Electrophysiology (% Block), IKs
[9] = read-out: Cellular Electrophysiology (% Block), IKr
[10] = 1 μM, read-out: Cellular Electrophysiology (% Block), IKs

Compound: Cc1cccc(NC(=O)NC2N=C(N3CCOCC3)c3ccccc3N(C)C2=O)c1 (stereo not shown) [Example 12]
- inhibition at 10 µM [1, 4]: 16 ± 11%
- inhibition at 1 µM [2, 5]: 13 ± 3.1%
- inhibition at 10 µM [2, 6]: 30 ± 5.4%

Compound: CS(=O)(=O)Nc1ccc2c(c1)C(O)CC1(CCN(C3CCc4cc(C#N)ccc4C3)CC1)O2 (single isomer, unassigned)
- block of IKr (IKr): predominantly, if not exclusively, block IKr

Compound: CN1C(=O)[C@H](NC(=O)C2CCC3(CC2)CCN(C(=O)OC(C)(C)C)CC3)N=C(c2ccccc2)c2ccccc21 [Example 40, (+)-N-[(3R)-2,3-Dihydro-1-methyl-2-oxo-5-phenyl-1H-1,4-benzo-diazepin-3-yl]-1'-(1,1-dimethylethoxycarbonyl)spiro(cyclohexan-4,4'-piperidine)-1-carboxamide]
- IKs inhibition, purity of action ([1]; in words): not a pure IKs inhibitor

Compound: CN1C(=O)[C@H](NC(=O)c2cc3ccccc3[nH]2)N=C(c2ccccc2)c2ccccc21 [Compound 1, 3(R)-(+)-1,3-dihydro-3-(2-indolecarbonylamino)-1-methyl-5-phenyl-2H-1,4-benzodiazepin-2-one]
- inhibition at 1 µM [2, 7]: 20%

Compound: CCCCc1oc2ccccc2c1C(=O)c1cc(I)c(OCCN(CC)CC)c(I)c1 [amiodarone]
- block of IKs (IKs): blocker of IKs
- block of Na+ currents (Na+ currents): blocks Na^+ and Ca^2+ currents
- block of Ca2+ currents (Ca2+ currents): blocks Na^+ and Ca^2+ currents
- effect on thyroid function (thyroid function): effects thyroid function
- adrenergic block (adrenergic): nonspecific adrenergic blocker
- inhibition of phospholipase (phospholipase): inhbitor of the enzyme phospholipase
- Class III properties / selectivity [3]: interesting Class III properties
- Class III properties / selectivity ([3]; listed as Amiodarone): not a selective Class III antiarrhythmic agent

Compound: CN1C(=O)[C@H](N)N=C(c2ccccc2)c2ccccc21 [Example 7]
- inhibition at 1 µM [1, 8]: 29.9 ± 6%
- inhibition at 10 µM [1, 8]: 43.4 ± 10.8%
- inhibition at 1 µM [2, 9]: 14.8 ± 6.7%
- inhibition at 10 µM [2, 9]: 36.4 ± 2.9%

Compound: CN1C(=O)C(NC(=O)c2cc3ccccc3[nH]2)N=C(c2ccncc2)c2ccccc21 (stereo not shown) [Example 9]
- inhibition at 1 µM [1, 10]: 20%
- inhibition at 10 µM [1, 4]: 66%
- inhibition at 1 µM [2, 5]: 44.3%
- inhibition at 10 µM [2, 6]: 82.4%

Compound: CC(C)NCC(O)c1ccc(NS(C)(=O)=O)cc1 (stereo not drawn) [d-sotalol]
- block of IKr (IKr): predominantly, if not exclusively, block IKr

Compound: COC(=O)C1=C(C)NC(C)=C(C(=O)OCC(C)C)C1c1ccccc1[N+](=O)[O-] (stereo not shown) [Nisoldipine]
- block of L-type Ca2+ channels (L-type Ca2+ channels): relatively specific blocker of L-type Ca^2+ channels
- effect on K+ currents (K+ currents): no effect on K^+ currents

Compound: CN1C(=O)[C@@H](NC(=O)c2cc3ccccc3[nH]2)N=C(c2ccccc2)c2ccccc21 [Compound 2, 3(S)-(-)-1,3-dihydro-3-(2-indolecarbonylamino)-1-methyl-5-phenyl-2H-1,4-benzodiazepin-2-one]
- inhibition at 1 µM ([1]; read-out: IC50 or % Block (μM), IKs (% block)): 25%
- inhibition at 1 µM [2, 7]: 21%

Compound: CN(CCOc1ccc(NS(C)(=O)=O)cc1)CCc1ccc(NS(C)(=O)=O)cc1 [dofetilide]
- block of IKr (IKr): predominantly, if not exclusively, block IKr

Compound: CC(C)S(=O)(=O)NC(=O)c1cccc(NC(=O)NC2N=C(C3CCCCC3)c3ccccc3N(C)C2=O)c1 (stereo not shown) [Example 5]
- inhibition at 1 µM [1, 10]: 10%
- inhibition at 10 µM [1, 4]: 30.5 ± 6.6%
- IC50 ([1]; Guinea Pig Myocytes, read-out: IC50 or % Block (μM), IKs (bare number: IC50)): 57 µM
- inhibition at 1 µM [2, 5]: 16.1%
- inhibition at 10 µM [2, 6]: 24.7 ± 13%
- IC50 ([2]; Guinea Pig Myocytes, read-out: IC50 or % Block (μM), IKr (bare number: IC50)): 77 µM
